One assay addresses PKM2 (Homo sapiens, UniProt P14618). Description: PKM2 Assay (activation, LDH-coupled, absorbance at 340 nm). Type of assay: biochemical. The note with it: Table 4. The procedure: • PKM2 stock enzyme solution was diluted in Reaction Buffer • 2 μL of compound was added into each well first, and then 180 μL of the Reaction Mix was added. • Reaction mixture with compound (without ADP) was incubated for 30 minutes at 4° C. • Plates were re-equilibrated to room temperature prior to adding 20 μL ADP to initiate the reaction. • Reaction progress was measured as changes in absorbance at 340 nm wavelength at room temperature (25° C.) Reaction Mix: PKM2 (50 ng/well), ADP (0.7 mM), PEP (0.15 mM), NADH (180 μM), LDH (2 units) in Reaction Buffer Reaction Buffer: 100 mM KCl, 50 mM Tris pH 7.5, 5 mM MgCl2, 1 mM DTT, 0.03% BSA.
Representative compounds of the invention were tested for their ability to activate PKM2 using the above assay. For simplicity, the activation activity of these compounds is represented as an AC50 in Tables 4 and 5 and throughout the application. […] “B” refers to an activator of PKM2 with an EC50 between 100 nM and 500 nM. “C” refers to an activator of PKM2 with an EC50 between 500 nM and 1000 nM. “D” refers to an activator of PKM2 with an EC50 between 1 μM and 20 μM. “E” refers a compound whose activation of PKM2 was not measurable. “N/C” refers to AC50 data not available.
Sequence of PKM2 (P14618 whole entry): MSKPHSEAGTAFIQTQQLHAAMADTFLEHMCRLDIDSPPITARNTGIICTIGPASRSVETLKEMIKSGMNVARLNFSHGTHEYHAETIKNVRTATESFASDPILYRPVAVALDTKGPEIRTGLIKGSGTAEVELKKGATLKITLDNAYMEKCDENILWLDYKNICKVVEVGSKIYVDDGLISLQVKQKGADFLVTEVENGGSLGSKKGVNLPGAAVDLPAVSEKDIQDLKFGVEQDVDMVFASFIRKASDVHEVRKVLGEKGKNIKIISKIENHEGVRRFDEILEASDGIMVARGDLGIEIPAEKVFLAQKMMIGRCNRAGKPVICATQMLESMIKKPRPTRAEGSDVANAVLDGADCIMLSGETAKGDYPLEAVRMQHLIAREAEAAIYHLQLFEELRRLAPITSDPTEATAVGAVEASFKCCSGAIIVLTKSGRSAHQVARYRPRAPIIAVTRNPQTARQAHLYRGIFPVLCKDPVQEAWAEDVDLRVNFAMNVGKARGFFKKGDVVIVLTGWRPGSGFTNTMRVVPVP
In turn, `C[C@H]1CN(Cc2c(F)cc(F)cc2F)CCN1C(=O)c1ccc(NS(=O)(=O)c2cccc3cccnc23)cc1Cl` [Compound 188, (S)—N-(3-chloro-4-(2-methyl-4-(2,4,6-trifluorobenzyl)piperazine-1-carbonyl)phenyl)quinoline-8-sulfonamide] had an AC50 of 500 to 1000 nM.

`CC(c1cc(F)cc(F)c1)N1CCN(C(=O)c2ccc(NS(=O)(=O)c3cccc4cccnc34)cc2)[C@H](C)C1` (stereo partly drawn) [Compound 135, N-(4-((2R)-4-(1-(3,5-difluorophenyl)ethyl)-2-methylpiperazine-1-carbonyl)phenyl)quinoline-8-sulfonamide]: the AC50 is less than 100 nM.

`CC(c1ccc(F)c(F)c1F)N1CCN(C(=O)c2ccc(NS(=O)(=O)c3cccc4cccnc34)cc2)[C@@H](C)C1` (some centres unmarked) [Compound 173] returned a concentration at half-maximal activity (AC50) of 100 to 500 nM.

In the case of `O=C1CN(C(=O)c2ccc(NS(=O)(=O)c3cccc4cccnc34)cc2)CCN1Cc1cc(F)cc(F)c1` [Compound 216, N-(4-(4-(3,5-difluorobenzyl)-3-oxopiperazine-1-carbonyl)phenyl)quinoline-8-sulfonamide], the AC50 was less than 100 nM.

Molecule `CC(c1c(F)cccc1F)N1CCN(C(=O)c2ccc(NS(=O)(=O)c3cccc4cccnc34)cc2)[C@H](C)C1` (stereo partly drawn) [Compound 159, N-(4-((2R)-4-(1-(2,6-difluorophenyl)ethyl)-2-methylpiperazine-1-carbonyl)phenyl)quinoline-8-sulfonamide] returned an AC50 of 100 to 500 nM.

The molecule `O=C(c1ccc(NS(=O)(=O)c2cccc3cccnc23)cc1)N1CCN(CC2CC2)C[C@@H]1c1ccccc1` [Compound 180] gave a half-maximal activity concentration (AC50) of 100 to 500 nM.

Molecule `C[C@@H]1CN(C(=O)c2ccccn2)CCN1C(=O)c1ccc(NS(=O)(=O)c2cccc3cccnc23)cc1` [Compound 103] displayed an AC50 of 100 to 500 nM.

In turn, `CC(c1cc(F)c(F)c(F)c1)N1CCN(C(=O)c2ccc(NS(=O)(=O)c3cccc4cccnc34)cc2)[C@H](C)C1` (stereo partly drawn) [Compound 158, N-(4-((2R)-2-methyl-4-(1-(3,4,5-trifluorophenyl)ethyl)piperazine-1-carbonyl)phenyl)quinoline-8-sulfonamide] gave an AC50 of 100 to 500 nM.

For the molecule `C[C@@H]1CN(Cc2cc(F)cc(F)c2)CCN1C(=O)c1ccc(NS(=O)(=O)c2cccc3cccnc23)cc1` [Compound 119, (R)—N-(4-(4-(3,5-difluorobenzyl)-2-methylpiperazine-1-carbonyl)phenyl)quinoline-8-sulfonamide], the AC50 was less than 100 nM.

`CC(c1c(F)ccc(F)c1F)N1CCN(C(=O)c2ccc(NS(=O)(=O)c3cccc4cccnc34)cc2)[C@H](C)C1` (stereo partly drawn) [Compound 190, N-(4-((2R)-2-methyl-4-(1-(2,3,6-trifluorophenyl)ethyl)piperazine-1-carbonyl)phenyl)quinoline-8-sulfonamide]: the AC50 is less than 100 nM.

Take `CC(c1ccc(F)cc1)N1CCN(C(=O)c2ccc(NS(=O)(=O)c3cccc4cccnc34)cc2)[C@H](C)C1` (stereo partly drawn) [Compound 133, N-(4-((2R)-4-(1-(4-fluorophenyl)ethyl)-2-methylpiperazine-1-carbonyl)phenyl)quinoline-8-sulfonamide]: the AC50 is less than 100 nM.

The assay is the same for the next values; noted with them: Table 5.
`[2H]C(c1ccc(F)cc1)N1CCN(C(=O)c2ccc(NS(=O)(=O)c3cccc4cccnc34)cc2)CC1` (centres unmarked) [Compound 448, N-(4-(4-(4-fluorobenzyl)piperazine-1-carbonyl)phenyl)quinoline-8-sulfonamide-(D)] returned an AC50 of less than 100 nM.

In turn, `CC(C1CC1)N1CCN(C(=O)c2ccc(NS(=O)(=O)c3cccc4cccnc34)cc2)CC1` (centres unmarked) [Compound 442, N-(4-(4-(1-cyclopropylethyl)piperazine-1-carbonyl)phenyl)quinoline-8-sulfonamide] came in with a concentration at half-maximal activity (AC50) of less than 100 nM.

As for `CC(c1cc(F)cc(F)c1F)N1CCN(C(=O)c2ccc(NS(=O)(=O)c3cccc4cccnc34)cc2)CC1` (centres unmarked) [Compound 396, N-(4-(4-(1-(2,3,5-trifluorophenyl)ethyl)piperazine-1-carbonyl)phenyl)quinoline-8-sulfonamide], the concentration at half-maximal activity (AC50) is less than 100 nM.

For the molecule `O=C(c1ccc(NS(=O)(=O)c2cccc3cccnc23)c(OC(F)(F)F)c1)N1CCN(C(=O)c2cocn2)CC1` [Compound 327], the half-maximal activity concentration (AC50) fell in the range of 500 to 1000 nM.

As to `O=C(c1ccc(NS(=O)(=O)c2cccc3cccnc23)cc1Cl)N1CCN(Cc2ccc(Cl)c(F)c2)CC1` [Compound 432, N-(3-chloro-4-(4-(4-chloro-3-fluorobenzyl)piperazine-1-carbonyl)phenyl)quinoline-8-sulfonamide], the AC50 fell in the range of 100 to 500 nM.

For the molecule `O=C(c1ccc(NS(=O)(=O)c2cccc3cccnc23)c(OC(F)(F)F)c1)N1CCN(Cc2ccncc2F)CC1` [Compound 304, N-(4-(4-((3-fluoropyridin-4-yl)methyl)piperazine-1-carbonyl)-2-(trifluoromethoxy)phenyl)quinoline-8-sulfonamide], the AC50 is 100 to 500 nM.

For the molecule `O=C(c1cnc(NS(=O)(=O)c2cccc3cccnc23)cn1)N1CCN(Cc2ccc(F)cc2)CC1` [Compound 452, N-(5-(4-(4-fluorobenzyl)piperazine-1-carbonyl)pyrazin-2-yl)quinoline-8-sulfonamide], the AC50 was 1000 to 20000 nM.

As for `CC(C)(c1cc(F)cc(F)c1)N1CCN(C(=O)c2ccc(NS(=O)(=O)c3cccc4cccnc34)cc2)CC1` [Compound 410], the AC50 is less than 100 nM.

As to `COc1ncccc1CN1CCN(C(=O)c2ccc(NS(=O)(=O)c3cccc4cccnc34)c(OC(F)(F)F)c2)CC1` [Compound 368, N-(4-(4-((2-methoxypyridin-3-yl)methyl)piperazine-1-carbonyl)-2-(trifluoromethoxy)phenyl)quinoline-8-sulfonamide], the AC50 was in the range of 100 to 500 nM.

The molecule `O=C(c1ccc(NS(=O)(=O)c2cccc3cccnc23)cc1)N1CCN(C(=O)C2CCCCO2)CC1` (centres unmarked) [Compound 430, N-(4-(4-(tetrahydro-2H-pyran-2-carbonyl)piperazine-1-carbonyl)phenyl)quinoline-8-sulfonamide] displayed an AC50 of less than 100 nM.

Consider `O=C(c1ccc(NS(=O)(=O)c2cccc3cccnc23)cc1)N1CCN(C(=O)c2ncc[nH]2)CC1` [Compound 354, N-(4-(4-(1H-imidazole-2-carbonyl)piperazine-1-carbonyl)phenyl)quinoline-8-sulfonamide], for which the half-maximal activity concentration (AC50) is less than 100 nM.

In the case of `O=C(c1ccc(NS(=O)(=O)c2cccc3cccnc23)cc1F)N1CCN(Cc2ccc(F)cc2)CC1` [Compound 420, N-(3-fluoro-4-(4-(4-fluorobenzyl)piperazine-1-carbonyl)phenyl)quinoline-8-sulfonamide], the AC50 is less than 100 nM.

`O=C(c1ccc(NS(=O)(=O)c2cccc3cccnc23)cc1)N1CCN(C(=O)c2cc(F)cc(F)c2)CC1` [Compound 345, N-(4-(4-(3,5-difluorobenzoyl)piperazine-1-carbonyl)phenyl)quinoline-8-sulfonamide] came in with an AC50 of 100 to 500 nM.

`COc1cc(C(=O)N2CCN(C(=O)c3ccc(F)c(F)c3)CC2)ccc1NS(=O)(=O)c1cccc2cccnc12` [Compound 319, N-(4-(4-(3,4-difluorobenzoyl)piperazine-1-carbonyl)-2-methoxyphenyl)quinoline-8-sulfonamide]: the AC50 fell in the range of 100 to 500 nM.

On to `O=C(c1ccc(NS(=O)(=O)c2cccc3cccnc23)cc1F)N1CCN(Cc2cc(F)cc(F)c2)CC1` [Compound 421, N-(4-(4-(3,5-difluorobenzyl)piperazine-1-carbonyl)-3-fluorophenyl)quinoline-8-sulfonamide], for which the concentration at half-maximal activity (AC50) is less than 100 nM.

In general, AC50 refers to the midpoint of the concentration-response curve, whichever way the signal moves.

The values above are taken from patent US8889667B2 (Agios Pharmaceuticals, Inc, priority 2010, dated 2014).
